Measured values: PubChem BioAssay (NCI)
“And” between values parts separate entries of the source, which are not always exact repeats. Equal values may be shown once.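 These data come from cells grown in 96-well plates and exposed to compound for 48 hours at five concentrations. GI50 marks 50% less growth. TGI marks complete inhibition of growth.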

Key:
Experiment in all cases: NCI-60 cell line screen, 48 h
T-47D breast = test system: T-47D breast
RPMI-8226 leukemia = test system: RPMI-8226 leukemia
BT-549 breast = test system: BT-549 breast
OVCAR-3 ovarian = test system: OVCAR-3 ovarian
HOP-62 NSCLC = test system: HOP-62 NSCLC
K-562 leukemia = test system: K-562 leukemia
SW-620 colon = test system: SW-620 colon
OVCAR-5 ovarian = test system: OVCAR-5 ovarian
UO-31 renal = test system: UO-31 renal
CAKI-1 renal = test system: CAKI-1 renal
NCI-H226 lung = test system: NCI-H226 lung
SF-295 CNS = test system: SF-295 CNS
NCI-H522 lung = test system: NCI-H522 lung
NCI/ADR-RES ovarian = test system: NCI/ADR-RES ovarian
U251 CNS = test system: U251 CNS
HL-60(TB) leukemia = test system: HL-60(TB) leukemia
SNB-75 CNS = test system: SNB-75 CNS
HS 578T breast = test system: HS 578T breast
786-0 renal = test system: 786-0 renal
EKVX NSCLC = test system: EKVX NSCLC
SN12C renal = test system: SN12C renal
COLO 205 colon = test system: COLO 205 colon
OVCAR-4 ovarian = test system: OVCAR-4 ovarian
SK-MEL-28 melanoma = test system: SK-MEL-28 melanoma
KM12 colon = test system: KM12 colon
A498 renal = test system: A498 renal
ACHN renal = test system: ACHN renal
NCI-H23 lung = test system: NCI-H23 lung
SK-MEL-2 melanoma = test system: SK-MEL-2 melanoma
SK-OV-3 ovarian = test system: SK-OV-3 ovarian
MDA-MB-435 = test system: MDA-MB-435
SR leukemia = test system: SR leukemia
RXF 393 renal = test system: RXF 393 renal
SNB-19 CNS = test system: SNB-19 CNS
MDA-MB-231 breast = test system: MDA-MB-231 breast
TK-10 renal = test system: TK-10 renal
A549 NSCLC = test system: A549 NSCLC
IGROV1 ovarian = test system: IGROV1 ovarian
HCT-15 colon = test system: HCT-15 colon
M14 melanoma = test system: M14 melanoma
HOP-92 NSCLC = test system: HOP-92 NSCLC
UACC-62 melanoma = test system: UACC-62 melanoma
HCT-116 colon = test system: HCT-116 colon
OVCAR-8 ovarian = test system: OVCAR-8 ovarian
HT29 colon = test system: HT29 colon
MCF7 breast = test system: MCF7 breast
MALME-3M melanoma = test system: MALME-3M melanoma
MOLT-4 leukemia = test system: MOLT-4 leukemia
UACC-257 melanoma = test system: UACC-257 melanoma
SF-268 CNS = test system: SF-268 CNS
SF-539 CNS = test system: SF-539 CNS
NCI-H460 lung = test system: NCI-H460 lung
DU-145 prostate = test system: DU-145 prostate
CCRF-CEM leukemia = test system: CCRF-CEM leukemia
PC-3 prostate = test system: PC-3 prostate
SK-MEL-5 melanoma = test system: SK-MEL-5 melanoma
LOX IMVI melanoma = test system: LOX IMVI melanoma
HCC-2998 colon = test system: HCC-2998 colon

## O=C(NC[C@H](O)CO)c1ccncc1Nc1ccc(I)cc1F
T-47D breast
  GI50: > 10 µM and 19.3 µM
  TGI: > 100 µM
RPMI-8226 leukemia
  GI50: > 10 µM and 28.4 µM
  TGI: > 100 µM
BT-549 breast
  GI50: > 10 µM and 23.3 µM
  TGI: > 95 µM
OVCAR-3 ovarian
  GI50: > 10 µM and 20.1 µM
  TGI: > 100 µM
HOP-62 NSCLC
  GI50: 0.0472 µM and 0.298 µM
  TGI: > 94 µM
K-562 leukemia
  GI50: 1.32 µM and 4.26 µM
  TGI: > 100 µM
SW-620 colon
  GI50: 0.0144 µM and 0.0188 µM
  TGI: > 100 µM
OVCAR-5 ovarian
  GI50: 0.0104 µM and 0.0151 µM
  TGI: > 100 µM
UO-31 renal
  GI50: 0.2 µM and 0.988 µM
  TGI: > 10 µM and 20.3 µM
CAKI-1 renal
  GI50: 0.59 µM and 1.38 µM
  TGI: > 100 µM
NCI-H226 lung
  GI50: > 6.36 µM and 1.4 µM
  TGI: > 100 µM
SF-295 CNS
  GI50: > 41 µM
  TGI: > 100 µM
NCI-H522 lung
  GI50: 4.95 µM and 33.2 µM
  TGI: > 100 µM
NCI/ADR-RES ovarian
  GI50: > 10 µM and 35 µM
  TGI: > 100 µM
U251 CNS
  GI50: 1.84 µM and 4.92 µM
  TGI: > 100 µM
HL-60(TB) leukemia
  GI50: 0.00228 µM and < 0.01 µM
  TGI: > 54.2 µM
SNB-75 CNS
  GI50: > 10 µM and 33.2 µM
  TGI: > 100 µM
HS 578T breast
  GI50: > 64.1 µM
  TGI: > 100 µM
786-0 renal
  GI50: > 10 µM and 6.21 µM
  TGI: > 100 µM
EKVX NSCLC
  GI50: 0.194 µM and 0.313 µM
  TGI: > 100 µM
SN12C renal
  GI50: > 7.13 µM and 7.74 µM
  TGI: > 100 µM
COLO 205 colon
  GI50: 0.00323 µM and < 0.01 µM
  TGI: > 100 µM
OVCAR-4 ovarian
  GI50: > 7.46 µM and 10.6 µM
  TGI: > 100 µM
SK-MEL-28 melanoma
  GI50: 0.00334 µM and < 0.0104 µM
KM12 colon
  GI50: 0.111 µM and 0.154 µM
  TGI: > 100 µM
A498 renal
  GI50: 0.03 µM and 0.0394 µM
  TGI: 0.417 µM and 0.517 µM
ACHN renal
  GI50: > 2.47 µM and 6.98 µM
  TGI: > 100 µM
NCI-H23 lung
  GI50: 0.0913 µM and 0.0707 µM
  TGI: > 71.8 µM
SK-MEL-2 melanoma
  GI50: 0.00484 µM and < 0.01 µM
  TGI: 0.0923 µM and 0.0599 µM
SK-OV-3 ovarian
  GI50: > 4.46 µM and 26.2 µM
  TGI: > 100 µM
MDA-MB-435
  GI50: 0.00907 µM and 0.0257 µM
  TGI: > 100 µM
SR leukemia
  GI50: > 10 µM and 52.4 µM
  TGI: > 100 µM
RXF 393 renal
  GI50: 0.678 µM and 1.6 µM
  TGI: > 10 µM and 29.1 µM
SNB-19 CNS
  GI50: > 10 µM and 21.2 µM
  TGI: > 100 µM
MDA-MB-231 breast
  GI50: 0.154 µM and 0.348 µM
  TGI: > 10 µM and 46.7 µM
TK-10 renal
  TGI: > 100 µM
A549 NSCLC
  GI50: 0.694 µM and 1.79 µM
  TGI: > 75.8 µM
IGROV1 ovarian
  TGI: > 100 µM
HCT-15 colon
  GI50: 3.53 µM and 5.62 µM
  TGI: > 100 µM
M14 melanoma
  GI50: 0.0031 µM and < 0.01 µM
  TGI: > 3.52 µM and 10.8 µM
HOP-92 NSCLC
  GI50: 0.0509 µM and 0.0379 µM
  TGI: 1.2 µM and 3.61 µM
UACC-62 melanoma
  GI50: 0.00248 µM and < 0.01 µM
  TGI: 0.0292 µM
HCT-116 colon
  GI50: 0.0556 µM and 0.104 µM
  TGI: > 100 µM
OVCAR-8 ovarian
  GI50: > 10 µM and 37.4 µM
  TGI: > 100 µM
HT29 colon
  GI50: 0.00409 µM and < 0.011 µM
  TGI: > 38.7 µM
MCF7 breast
  GI50: > 10 µM and 15.5 µM
  TGI: > 100 µM
MALME-3M melanoma
  GI50: 0.00242 µM and < 0.01 µM
  TGI: 0.0972 µM and < 0.0162 µM
MOLT-4 leukemia
  GI50: > 79.9 µM
  TGI: > 100 µM
UACC-257 melanoma
  GI50: 0.00359 µM and < 0.01 µM
  TGI: 0.0403 µM and 0.0438 µM
SF-268 CNS
  GI50: > 10 µM and 29.9 µM
  TGI: > 100 µM
SF-539 CNS
  GI50: > 10 µM and 23.2 µM
  TGI: > 100 µM
NCI-H460 lung
  GI50: > 10 µM and 11.8 µM
  TGI: > 100 µM
DU-145 prostate
  GI50: > 10 µM and 17.8 µM
  TGI: > 100 µM
CCRF-CEM leukemia
  GI50: > 100 µM
  TGI: > 100 µM
PC-3 prostate
  GI50: > 10 µM and 61 µM
  TGI: > 100 µM
SK-MEL-5 melanoma
  GI50: 7.7 µM
  TGI: > 100 µM
LOX IMVI melanoma
  TGI: > 10 µM and 22.4 µM
HCC-2998 colon
  GI50: 0.00358 µM and 0.019 µM
  TGI: > 8.4 µM and 9.22 µM
